From article PMC3004370, “PI3Kα Inhibitors That Inhibit Metastasis” (Oncotarget, 2010)
pIC50: −log10 of the molar value.

Assays:
[1] = target: T1, p110δ (Homo sapiens, UniProt O00329); test: Biochemical PI3K inhibition assay, p110δ; details: 10 μM ATP, two hours
T1 construct: His-tag; made in house; host or cells: Sf9 insect cells (baculovirus)
Source text: (§1) cDNA clones of PIK3CA, PIK3CB and PIK3CG were obtained from Origene (Rockville, MD, USA). PIK3CD was generously provided by Novartis Pharmaceuticals. The cDNA clones were sub-cloned into pFastBac His-Tag (Invitrogen, Carlsbad, CA, USA) and baculovirus clones were generated by the Bac-to-Bac expression system (Invitrogen). p110α, p110β and p110δ were co-expressed in Sf9 insect cells (Invitrogen) with a nSH2-iSH2 fragment of the regulatory subunit p85 comprising AA residues 322 to 600 [4]. p110γ was expressed without a regulatory subunit. Sf9 cells were lysed in a buffer containing 50 mM sodium phosphate, pH 8.0, 400 mM NaCl, 5% glycerol, 1% Triton X-100, 10 mM 2-mercaptoethanol, 1 mM orthovanadate, 10 mM imidazole, and sonicated on ice for 1 minute. Proteins were purified by adding Ni-NTA Superflow beads (Qiagen, Valencia, CA, USA) to the lysate and subsequent rolling for 30 min at 4°C. Beads were washed twice with 50 mM phosphate buffer, pH 8.0, 0.5 M NaCl, 50 mM Imidazole, 2 mM DTT and eluted in the same buffer but with 200 mM imidazole. Purified PI3K's were mixed 1:1 with glycerol and stored at -20°C.
(§2) J-series inhibitors were dissolved, serial diluted in DMSO and deposited into 96 well plates at a final DMSO concentration of 1%. We used a novel assay to determine their potency and selectivity. In brief, micelles of 2.5 μg L-a-Phosphatidylinositol and 2.5 μg 1,2-Diacyl-sn-glycero-3-phospho-L-serine were formed by sonication, mixed with the individual PI3K isoforms and added to the drug dilutions in a reaction buffer containing 10 mM HEPES, 25 mM NaCl, 0.125 μg/μl BSA, and 2 mM BME (final concentrations). Reactions were timed after the addition of 10 μM ATP with 40 μCi/ml γ-32P-ATP (PerkinElmer, Waltham, MA, USA) and 2 mM MgCl2 (all final concentrations). The reactions were terminated after two hours by the addition of 2 N HCl and the lipids extracted with 1:1 MetOH/Chloroform. Radio-labeled phosphatidyl-inositol-3-phosphate in the extracted organic fraction was quantified after the addition of Microscint O (PerkinElmer) using a TopCount 96 well plate scintillation counter (PerkinElmer). IC50 concentrations and inhibition curves were calculated using Prism 5 (GraphPad Software, La Jolla, CA).

[2] = target: T2, p110γ (Homo sapiens, UniProt P48736); test: Biochemical PI3K inhibition assay, p110γ
T2 construct: His-tag; made in house; host or cells: Sf9 insect cells (baculovirus)
Source text: as §1, §2

[3] = target: T3, mTOR (Homo sapiens, UniProt P42345); test: Panel of 273 kinases, mTOR; assay type: biochemical
T3 construct: purchased Millipore (KinaseProfiler service)
Method: The compounds were also tested for their capacity to inhibit two common mutant forms of PI3Kα – E545K and H1047R [2, 33]. None of the compounds discriminated between the wild-type (wt) and mutant forms of the enzyme (data not shown). Finally, we also tested one of the compounds (J124, chosen for reasons discussed later) against a panel of 273 kinases.

[4] = target: T4, Src(1-530) (Homo sapiens, UniProt P12931); test: Millipore KinaseProfiler; assay type: biochemical; details: read-out: % of control
T4 construct: Src(1-530); purchased Millipore (KinaseProfiler service)
Source text: (§3) Supplement oncotarget-01-339-s001.doc, table 1: Supplementary Table 1. Millipore KinaseProfiler excerpt | column: % of control

[5] = target: T5, NEK2 (Homo sapiens, UniProt P51955); test: Millipore KinaseProfiler; assay type: biochemical; details: read-out: % of control
T5 construct: purchased Millipore (KinaseProfiler service)
Source text: as §3

[6] = target: T6, Flt3 (Homo sapiens, UniProt P36888); test: Millipore KinaseProfiler; assay type: biochemical; details: read-out: % of control
T6 construct: purchased Millipore (KinaseProfiler service)
Source text: as §3

[7] = target: T7, CLK2 (Homo sapiens, UniProt P49760); test: Millipore KinaseProfiler; assay type: biochemical; details: read-out: % of control
T7 construct: purchased Millipore (KinaseProfiler service)
Source text: as §3

[8] = target: T8, TBK1 (Homo sapiens, UniProt Q9UHD2); test: Millipore KinaseProfiler; assay type: biochemical; details: read-out: % of control
T8 construct: purchased Millipore (KinaseProfiler service)
Source text: as §3

[9] = target: T9, EphB1 (Homo sapiens, UniProt P54762); test: Millipore KinaseProfiler; assay type: biochemical; details: read-out: % of control
T9 construct: purchased Millipore (KinaseProfiler service)
Source text: as §3

[10] = target: T10, Ret (Homo sapiens, UniProt P07949); test: Millipore KinaseProfiler; assay type: biochemical; details: read-out: % of control
T10 construct: purchased Millipore (KinaseProfiler service)
Source text: as §3

[11] = target: T11, ACK1 (Homo sapiens, UniProt Q07912); test: Millipore KinaseProfiler; assay type: biochemical; details: read-out: % of control
T11 construct: purchased Millipore (KinaseProfiler service)
Source text: as §3

[12] = target: T12, PTK5 (Homo sapiens, UniProt P42685); test: Millipore KinaseProfiler; assay type: biochemical; details: read-out: % of control
T12 construct: purchased Millipore (KinaseProfiler service)
Source text: as §3

[13] = target: T13, PKCθ (Homo sapiens, UniProt Q04759); test: Millipore KinaseProfiler; assay type: biochemical; details: read-out: % of control
T13 construct: purchased Millipore (KinaseProfiler service)
Source text: as §3

[14] = target: T14, MELK (Homo sapiens, UniProt Q14680); test: Millipore KinaseProfiler; assay type: biochemical; details: read-out: % of control
T14 construct: purchased Millipore (KinaseProfiler service)
Source text: as §3

[15] = target: T15, IRAK4 (Homo sapiens, UniProt Q9NWZ3); test: Millipore KinaseProfiler; assay type: biochemical; details: read-out: % of control
T15 construct: purchased Millipore (KinaseProfiler service)
Source text: as §3

[16] = target: T16, Flt3(D835Y) (Homo sapiens, UniProt P36888, D835Y); test: Millipore KinaseProfiler; assay type: biochemical; details: read-out: % of control
T16 construct: purchased Millipore (KinaseProfiler service)
Source text: as §3

[17] = target: T17, Mer (Homo sapiens, UniProt Q12866); test: Millipore KinaseProfiler; assay type: biochemical; details: read-out: % of control
T17 construct: purchased Millipore (KinaseProfiler service)
Source text: as §3

[18] = target: T18, LIMK1 (Homo sapiens, UniProt P53667); test: Millipore KinaseProfiler; assay type: biochemical; details: read-out: % of control
T18 construct: purchased Millipore (KinaseProfiler service)
Source text: as §3

[19] = target: T19, Yes (Homo sapiens, UniProt P07947); test: Millipore KinaseProfiler; assay type: biochemical; details: read-out: % of control
T19 construct: purchased Millipore (KinaseProfiler service)
Source text: as §3

[20] = target: T20, IRAK1 (Homo sapiens, UniProt P51617); test: Millipore KinaseProfiler; assay type: biochemical; details: read-out: % of control
T20 construct: purchased Millipore (KinaseProfiler service)
Source text: as §3

[21] = target: T21, Haspin (Homo sapiens, UniProt Q8TF76); test: Millipore KinaseProfiler; assay type: biochemical; details: read-out: % of control
T21 construct: purchased Millipore (KinaseProfiler service)
Source text: as §3

[22] = target: T22, TrkA (Homo sapiens, UniProt P04629); test: Millipore KinaseProfiler; assay type: biochemical; details: read-out: % of control
T22 construct: purchased Millipore (KinaseProfiler service)
Source text: as §3

[23] = target: T23, cSRC (Homo sapiens, UniProt P12931); test: Millipore KinaseProfiler; assay type: biochemical; details: read-out: % of control
T23 construct: purchased Millipore (KinaseProfiler service)
Source text: as §3

[24] = target: T24, CDK5/p35 (Homo sapiens, UniProt Q00535); test: Millipore KinaseProfiler; assay type: biochemical; details: read-out: % of control
T24 construct: purchased Millipore (KinaseProfiler service)
Source text: as §3

[25] = target: T25, EGFR(T790M,L858R) (Homo sapiens, UniProt P00533, L858R/T790M); test: Millipore KinaseProfiler; assay type: biochemical; details: read-out: % of control
T25 construct: purchased Millipore (KinaseProfiler service)
Source text: as §3

T2 sequence (P48736 whole entry): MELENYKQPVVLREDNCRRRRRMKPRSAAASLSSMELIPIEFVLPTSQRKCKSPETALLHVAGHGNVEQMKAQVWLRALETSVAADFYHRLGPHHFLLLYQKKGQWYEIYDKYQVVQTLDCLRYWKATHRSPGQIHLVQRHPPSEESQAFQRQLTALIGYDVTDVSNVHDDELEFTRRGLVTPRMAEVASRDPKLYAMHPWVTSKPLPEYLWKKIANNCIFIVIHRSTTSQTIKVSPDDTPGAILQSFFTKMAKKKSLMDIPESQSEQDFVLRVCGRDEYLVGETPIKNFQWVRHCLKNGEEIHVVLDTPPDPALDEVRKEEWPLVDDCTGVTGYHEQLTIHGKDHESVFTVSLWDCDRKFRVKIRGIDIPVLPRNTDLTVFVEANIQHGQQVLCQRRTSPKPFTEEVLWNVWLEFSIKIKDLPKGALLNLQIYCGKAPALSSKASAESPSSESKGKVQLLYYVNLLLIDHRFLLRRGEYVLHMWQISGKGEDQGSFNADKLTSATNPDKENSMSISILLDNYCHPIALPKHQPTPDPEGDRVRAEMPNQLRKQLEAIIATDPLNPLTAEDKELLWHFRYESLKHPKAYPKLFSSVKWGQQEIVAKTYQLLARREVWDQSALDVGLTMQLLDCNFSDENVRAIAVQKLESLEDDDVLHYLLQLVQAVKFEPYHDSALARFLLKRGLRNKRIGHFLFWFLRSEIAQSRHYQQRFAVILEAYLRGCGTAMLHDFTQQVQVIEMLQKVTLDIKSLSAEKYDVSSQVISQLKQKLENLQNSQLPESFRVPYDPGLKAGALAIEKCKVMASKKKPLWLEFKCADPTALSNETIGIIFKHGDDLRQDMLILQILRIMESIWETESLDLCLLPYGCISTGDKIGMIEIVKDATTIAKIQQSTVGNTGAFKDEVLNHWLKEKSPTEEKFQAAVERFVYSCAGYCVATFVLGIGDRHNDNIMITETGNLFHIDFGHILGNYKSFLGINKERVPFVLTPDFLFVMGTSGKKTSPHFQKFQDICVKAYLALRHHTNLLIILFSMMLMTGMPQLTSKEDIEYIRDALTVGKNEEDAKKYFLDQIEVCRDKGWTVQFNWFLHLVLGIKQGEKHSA
T8 sequence (Q9UHD2 whole entry): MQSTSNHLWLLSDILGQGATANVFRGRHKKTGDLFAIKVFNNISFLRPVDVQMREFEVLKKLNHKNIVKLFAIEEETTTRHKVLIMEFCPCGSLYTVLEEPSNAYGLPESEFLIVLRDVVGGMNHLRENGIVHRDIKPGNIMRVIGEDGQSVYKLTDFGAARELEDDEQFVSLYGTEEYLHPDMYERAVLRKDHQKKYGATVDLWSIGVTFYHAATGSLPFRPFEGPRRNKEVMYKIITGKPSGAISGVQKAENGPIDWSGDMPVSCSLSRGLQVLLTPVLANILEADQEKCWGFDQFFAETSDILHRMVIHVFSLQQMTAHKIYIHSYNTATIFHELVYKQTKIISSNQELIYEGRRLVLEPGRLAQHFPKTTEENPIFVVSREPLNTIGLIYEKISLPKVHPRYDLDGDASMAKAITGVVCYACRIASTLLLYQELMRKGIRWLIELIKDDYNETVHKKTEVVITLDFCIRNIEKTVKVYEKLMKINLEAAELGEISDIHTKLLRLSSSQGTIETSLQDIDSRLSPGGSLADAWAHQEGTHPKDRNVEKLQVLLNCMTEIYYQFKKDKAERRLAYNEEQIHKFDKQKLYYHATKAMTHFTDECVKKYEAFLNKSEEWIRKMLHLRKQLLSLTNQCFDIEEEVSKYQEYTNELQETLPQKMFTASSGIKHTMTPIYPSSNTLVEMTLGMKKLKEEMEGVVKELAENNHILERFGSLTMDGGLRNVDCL
T12 sequence (P42685 whole entry): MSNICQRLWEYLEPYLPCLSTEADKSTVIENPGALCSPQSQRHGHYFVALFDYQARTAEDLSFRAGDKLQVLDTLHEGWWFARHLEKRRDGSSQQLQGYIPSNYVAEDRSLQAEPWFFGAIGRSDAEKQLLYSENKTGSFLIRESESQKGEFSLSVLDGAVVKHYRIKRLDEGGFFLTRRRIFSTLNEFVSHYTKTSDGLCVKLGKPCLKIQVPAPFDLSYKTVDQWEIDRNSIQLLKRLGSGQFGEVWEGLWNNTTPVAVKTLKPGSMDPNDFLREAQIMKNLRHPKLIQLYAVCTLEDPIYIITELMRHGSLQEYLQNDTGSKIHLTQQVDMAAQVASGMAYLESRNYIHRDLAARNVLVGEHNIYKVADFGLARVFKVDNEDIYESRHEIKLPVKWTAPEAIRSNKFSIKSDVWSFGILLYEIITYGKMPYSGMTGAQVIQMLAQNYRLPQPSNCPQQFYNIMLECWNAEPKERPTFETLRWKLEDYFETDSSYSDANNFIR
T1 sequence (O00329 whole entry): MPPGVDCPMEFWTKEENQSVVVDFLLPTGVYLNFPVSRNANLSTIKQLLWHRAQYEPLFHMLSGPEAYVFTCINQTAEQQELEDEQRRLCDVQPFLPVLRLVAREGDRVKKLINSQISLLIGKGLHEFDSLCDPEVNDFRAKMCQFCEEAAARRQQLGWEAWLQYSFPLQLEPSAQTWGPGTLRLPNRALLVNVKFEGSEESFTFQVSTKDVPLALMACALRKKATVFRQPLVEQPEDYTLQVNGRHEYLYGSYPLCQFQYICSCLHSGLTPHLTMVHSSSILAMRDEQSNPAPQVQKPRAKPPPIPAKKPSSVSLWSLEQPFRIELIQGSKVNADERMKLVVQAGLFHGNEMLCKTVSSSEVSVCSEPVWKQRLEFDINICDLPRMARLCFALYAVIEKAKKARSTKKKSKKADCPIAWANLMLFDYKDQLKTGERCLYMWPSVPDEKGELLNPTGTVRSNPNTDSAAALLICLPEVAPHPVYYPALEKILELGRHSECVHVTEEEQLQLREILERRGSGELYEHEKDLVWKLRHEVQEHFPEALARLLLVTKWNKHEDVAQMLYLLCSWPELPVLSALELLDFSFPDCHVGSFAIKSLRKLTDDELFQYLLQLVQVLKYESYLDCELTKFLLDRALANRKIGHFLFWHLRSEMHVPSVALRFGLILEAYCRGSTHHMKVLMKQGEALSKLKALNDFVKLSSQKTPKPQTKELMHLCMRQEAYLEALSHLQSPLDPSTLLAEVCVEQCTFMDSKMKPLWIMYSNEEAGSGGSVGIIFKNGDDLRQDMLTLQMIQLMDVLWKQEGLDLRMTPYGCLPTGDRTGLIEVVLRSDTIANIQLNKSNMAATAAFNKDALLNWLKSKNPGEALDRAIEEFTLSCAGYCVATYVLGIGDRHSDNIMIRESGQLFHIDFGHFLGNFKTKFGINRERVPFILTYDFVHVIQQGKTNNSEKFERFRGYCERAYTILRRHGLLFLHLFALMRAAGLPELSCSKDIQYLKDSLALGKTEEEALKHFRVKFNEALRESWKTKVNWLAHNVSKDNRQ
T1 sequence (P27986 322-600 partner limits assumed): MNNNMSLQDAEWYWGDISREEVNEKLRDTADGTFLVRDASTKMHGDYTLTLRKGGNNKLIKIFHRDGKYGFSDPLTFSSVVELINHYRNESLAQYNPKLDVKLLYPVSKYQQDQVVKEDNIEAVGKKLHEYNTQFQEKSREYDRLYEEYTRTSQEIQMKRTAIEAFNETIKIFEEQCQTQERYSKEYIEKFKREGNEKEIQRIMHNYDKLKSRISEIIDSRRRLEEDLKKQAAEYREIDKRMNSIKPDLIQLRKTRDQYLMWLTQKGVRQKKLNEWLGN
T9 sequence (P54762 18-984): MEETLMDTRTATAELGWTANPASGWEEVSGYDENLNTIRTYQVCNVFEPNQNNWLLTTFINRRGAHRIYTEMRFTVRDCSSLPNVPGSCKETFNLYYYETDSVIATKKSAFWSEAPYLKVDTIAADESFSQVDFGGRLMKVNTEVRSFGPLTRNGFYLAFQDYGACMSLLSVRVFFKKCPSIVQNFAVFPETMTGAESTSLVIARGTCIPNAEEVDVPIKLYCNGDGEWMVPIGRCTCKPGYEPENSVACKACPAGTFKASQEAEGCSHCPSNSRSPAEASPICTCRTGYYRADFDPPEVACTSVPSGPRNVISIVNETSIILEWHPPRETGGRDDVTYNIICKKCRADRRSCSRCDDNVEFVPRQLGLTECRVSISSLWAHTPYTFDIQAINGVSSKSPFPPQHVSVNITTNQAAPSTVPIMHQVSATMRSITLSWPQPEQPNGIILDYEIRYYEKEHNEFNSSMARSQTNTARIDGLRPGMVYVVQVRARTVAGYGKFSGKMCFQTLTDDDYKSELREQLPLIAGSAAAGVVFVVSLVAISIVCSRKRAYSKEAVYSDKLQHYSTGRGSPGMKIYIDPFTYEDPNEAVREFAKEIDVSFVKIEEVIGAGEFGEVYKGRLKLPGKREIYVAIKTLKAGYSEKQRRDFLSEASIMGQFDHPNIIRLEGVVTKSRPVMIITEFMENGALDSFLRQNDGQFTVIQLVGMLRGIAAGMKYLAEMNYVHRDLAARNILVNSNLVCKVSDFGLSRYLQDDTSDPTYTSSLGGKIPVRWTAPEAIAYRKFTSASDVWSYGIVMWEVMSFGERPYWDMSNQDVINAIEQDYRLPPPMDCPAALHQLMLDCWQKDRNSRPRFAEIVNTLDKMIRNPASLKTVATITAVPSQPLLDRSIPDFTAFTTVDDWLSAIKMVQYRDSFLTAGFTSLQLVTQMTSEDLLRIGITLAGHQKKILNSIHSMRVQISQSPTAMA
T5 sequence (P51955 whole entry): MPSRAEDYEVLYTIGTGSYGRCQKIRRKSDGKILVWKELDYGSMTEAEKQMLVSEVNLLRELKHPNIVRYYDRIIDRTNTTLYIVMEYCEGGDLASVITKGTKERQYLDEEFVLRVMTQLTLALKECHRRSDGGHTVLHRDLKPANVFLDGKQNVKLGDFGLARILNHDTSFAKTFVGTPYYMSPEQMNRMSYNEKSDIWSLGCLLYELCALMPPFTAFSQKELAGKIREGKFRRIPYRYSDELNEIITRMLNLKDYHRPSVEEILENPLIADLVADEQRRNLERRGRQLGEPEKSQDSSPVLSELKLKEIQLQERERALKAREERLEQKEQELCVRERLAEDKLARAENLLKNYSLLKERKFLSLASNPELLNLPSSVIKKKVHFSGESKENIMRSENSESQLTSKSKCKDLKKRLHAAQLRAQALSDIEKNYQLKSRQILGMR

CCN(/N=C/c1cnc2ccc(Br)cn12)S(=O)(=O)c1cc([N+](=O)[O-])c(NC(=O)C(F)(F)F)cc1C [J124]
pIC50 [1]: 6.80
pIC50 ([2]; 10 μM ATP, two hours, no regulatory subunit): 6.42
selectivity against PI3Kγ ([2]; relative to PI3Kα): > 30 fold
inhibition of mTOR with an IC50 of 11 nM or lower [3]: not mTOR
remaining activity at 0.011 µM [4]: 48%
remaining activity at 0.011 µM [5]: 42%
remaining activity at 0.011 µM [6]: 10%
remaining activity at 0.011 µM [7]: 5%
remaining activity at 0.011 µM [8]: 46%
remaining activity at 0.011 µM [9]: 46%
remaining activity at 0.011 µM [10]: 49%
remaining activity at 0.011 µM [11]: 30%
remaining activity at 0.011 µM [12]: 11%
remaining activity at 0.011 µM [13]: 35%
remaining activity at 0.011 µM [14]: 23%
remaining activity at 0.011 µM [15]: 48%
remaining activity at 0.011 µM [16]: 3%
remaining activity at 0.011 µM [17]: 33%
remaining activity at 0.011 µM [18]: 36%
remaining activity at 0.011 µM [19]: 40%
remaining activity at 0.011 µM [20]: 42%
remaining activity at 0.011 µM [21]: -1%
remaining activity at 0.011 µM [22]: 11%
remaining activity at 0.011 µM [23]: 48%
remaining activity at 0.011 µM [24]: 37%
remaining activity at 0.011 µM [25]: 46%
